Values joined by “and” are separate entries in the source; they are usually repeats but may differ in a detail not shown here. Equal values may be shown once.
Tested on: WM3248 melanoma cells, 486 antibodies
Assay: Reverse phase protein arrays (RPPA)
Assay type: cell-based, Human
Conditions: 10 uM
From the text: Pellets were snap frozen in liquid nitrogen and shipped to MD Anderson Cancer Center core RPPA facility for RPPA analysis (Table S5). Three biological replicates for each sample were generated.
Nomenclatures on the RPPA heatmaps: name_of_antibody.species_of_antibody.status_of_antibody. V - antibody validated; C - validation of antibody in progress; Q - antibody nonspecific; E – under evaluation; antibodies raised in M - mouse, G - goat, R - rabbit, or T - rat.

CN(C)c1cccc(Nc2cc(-c3ccccc3)nc(C3CCNCC3)n2)c1 [ARN22089, N1,N1-dimethyl-N3-(6-phenyl-2-(piperidin-4-yl)pyrimidin-4-yl)benzene-1,3-diamine]
RPPA level MMP14.R.V (single replicates): 0.939 and 1.138
RPPA level MR1.M.C (single replicates): 1.059 and 1.005 and 1.063
RPPA level MRAP.R.C (single replicates): 1.023 and 1.051
RPPA level MSH2.R.C (single replicates): 0.977 and 1.024
RPPA level MSH6.R.C (single replicates): 0.940 and 0.976
RPPA level MSI2.R.C (single replicates): 1.020 and 0.933
RPPA level MTCO1.M.V (single replicates): 1.128 and 0.684
RPPA level MTSS1.M.C (single replicates): 1.023 and 1.031
RPPA level Mcl.1.R.V (single replicates): 0.823 and 0.973 and 0.929
RPPA level MelanA.R.C (single replicates): 0.752 and 0.988 and 1.034
RPPA level Melanoma.gp100.R.C (single replicates): 0.837 and 0.959 and 1.052
RPPA level Merlin.R.C (single replicates): 1.020 and 0.924
RPPA level Midkine.R.V (single replicates): 1.032 and 0.966 and 1.004
RPPA level Mitofusin.1.R.V (single replicates): 0.925 and 1.003 and 1.050
RPPA level Mitofusin.2.R.V (single replicates): 0.797 and 0.934 and 1.103
RPPA level Mnk1.R.V (single replicates): 0.917 and 0.929 and 1.022
RPPA level mTOR.R.V (single replicates): 1.016 and 0.918 and 0.854
RPPA level mTOR_pS2448.R.C (single replicates): 1.016 and 0.946 and 0.924
RPPA p21.R.C (single replicates): 1.203 and 0.773 and 1.055
RPPA p27.Kip1.R.C (single replicates): 1.051 and 0.999
RPPA p27_pT157.R.C (single replicates): 1.124 and 1.006
RPPA p27_pT198.R.V (single replicates): 0.989 and 1.466 and 1.049
RPPA p38.MAPK.R.V (single replicates): 0.899 and 0.964 and 1.062
RPPA p38.MAPK._pT180_Y182.R.V (single replicates): 0.872 and 0.913 and 0.950
RPPA p38.a.M.V (single replicates): 0.966 and 1.049
RPPA p44.42.MAPK.R.V (single replicates): 0.852 and 0.899
RPPA p53.R.C (single replicates): 0.871 and 0.886 and 0.966
RPPA p70.S6K1.R.V (single replicates): 1.046 and 0.827 and 0.882
RPPA p70.S6K_pT389.R.V (single replicates): 1.331 and 0.838 and 0.820
RPPA p90RSK_pT573.R.C (single replicates): 1.224 and 0.922 and 1.014
RPPA DNMT1.R.V (single samples): 1.052 and 0.962 and 1.050
RPPA DRP1.R.V (single samples): 1.012 and 0.957 and 0.978
RPPA DUSP4.R.V (single samples): 0.821 and 0.862 and 1.012
RPPA DUSP6.R.C (single samples): 1.063 and 0.981 and 0.768
RPPA DYRK1B.R.C (single samples): 1.057
RPPA Dvl3.R.V (single samples): 0.885 and 1.058 and 1.012
RPPA E2F1.R.V (single samples): 1.030 and 1.011
RPPA E.Cadherin.R.V (single samples): 0.941 and 1.144 and 1.080
RPPA EGFR.R.V (single samples): 0.824 and 0.981 and 0.985
RPPA EGFR_pY1068.R.C (single samples): 0.993 and 0.982
RPPA EGFR_pY1173.R.V (single samples): 0.968 and 1.017 and 0.987
RPPA EMA.M.C (single samples): 1.080 and 1.274
RPPA ENY2.M.C (single samples): 0.960 and 1.056
RPPA ER.a.R.V (single samples): 0.808 and 0.999 and 1.013
RPPA ER.a_pS118.R.V (single samples): 1.079 and 0.918 and 0.929
RPPA ERCC1.R.C (single samples): 1.102 and 1.123 and 0.975
RPPA ERCC5.R.C (single samples): 0.931 and 0.897 and 0.810
RPPA ERRalpha.R.V (single samples): 1.149 and 0.962
RPPA EVI1.R.V (single samples): 1.129 and 1.023
RPPA Elk1_pS383.R.C (single samples): 0.944 and 1.020 and 1.011
RPPA Enolase.1.R.V (single samples): 0.956 and 0.946
RPPA Enolase.2.R.V (single samples): 1.058 and 1.146 and 1.060
RPPA EphA2.R.V (single samples): 0.798 and 1.104 and 1.103
RPPA EphA2_pY588.R.C (single samples): 0.976 and 0.887
RPPA Erk5.R.V (single samples): 0.766 and 0.899 and 1.062
RPPA Ets.1.R.V (single samples): 1.143 and 1.054 and 1.017
RPPA FABP5.R.C (single samples): 0.909 and 1.032 and 1.076
RPPA FAK.R.C (single samples): 0.856 and 0.998
RPPA FAK_pY397.R.V (single samples): 1.077 and 0.996
RPPA FANCD2.R.V (single samples): 1.119 and 0.953 and 0.957
RPPA FASN.R.V (single samples): 1.052 and 0.855 and 0.656
RPPA FGF.basic.R.C (single samples): 0.867 and 1.005 and 0.952
RPPA FN14.R.C (single samples): 0.860 and 1.189 and 1.048
RPPA FOXM1.R.V (single samples): 1.131 and 0.950 and 0.985
RPPA FOXO3.R.V (single samples): 0.873 and 1.121 and 1.097
RPPA FRS2.alpha_pY196.R.V (single samples): 1.003 and 1.811
RPPA FTO.R.V (single samples): 1.061 and 0.989 and 0.960
RPPA Fibronectin.R.V (single samples): 0.546 and 0.983 and 0.999
RPPA FoxO3a_pS318_S321.R.C (single samples): 1.060 and 0.984
RPPA G6PD.R.V (single samples): 1.051 and 1.085 and 1.058
RPPA GATA3.M.V (single samples): 1.245 and 0.906 and 0.898
RPPA GATA6.R.V (single samples): 1.116 and 0.978
RPPA GCLC.R.C (single samples): 0.924 and 1.030
RPPA GCLM.R.V (single samples): 1.052 and 1.025 and 1.000
RPPA GCN5L2.R.V (single samples): 0.890 and 0.985
RPPA GGPS1.M.V (single samples): 0.998 and 0.974 and 1.046
RPPA GRB2.R.V (single samples): 0.833 and 0.898 and 0.998
RPPA GRB7.R.V (single samples): 0.772 and 1.100
RPPA GSK.3B.R.C (single samples): 0.886 and 0.913 and 0.953
RPPA GSK.3a.b.M.V (single samples): 1.163 and 1.006 and 1.033
RPPA GSK.3a.b_pS21_S9.R.V (single samples): 1.290 and 0.899 and 0.932

— PMC9127750, “Structure-based design of CDC42 effector interaction inhibitors for the treatment of cancer” (Cell reports, 2022)
